This note sets out measurements from patent US20140135359A1, “METHODS OF DESIGNING, PREPARING, AND USING NOVEL PROTONOPHORES” (priority 2012, published 2014).

The subject of data set [1] is differentiated C2C12 skeletal muscle cells. Put plainly: 3H-deoxyglucose uptake in C2C12 myotubes. Type of data set: cell-based, murine. The following applies: 18 h. As to the method: 2.3 ^3H-deoxyglucose uptake in C2C12 myotubes: Cell culture and the ^3H-deoxyglucose uptake assay were performed as previously described [34B, 35B, 37B]. Briefly, C2C12 murine skeletal myoblasts (American Type Culture Collection; Manassas, Va.) were cultured under standard conditions in 12-well plates. Cells were proliferated to 80% confluence in high-glucose Dulbecco's modified Eagle's medium (DMEM; Wisent; St-Bruno, QC) supplemented with 10% fetal bovine serum (FBS; Wisent), 10% horse serum (HS), and antibiotics. Differentiation into multinucleated myotubes was then promoted with DMEM supplemented with 2% HS and antibiotics. All uptake assays were performed on 7-day differentiated cells, and treatments were timed accordingly. […] DMSO concentration was fixed at 0.1% for all conditions. Cells were routinely inspected for abnormal morphology by phase-contrast microscopy at the conclusion of the treatment period. […] Cells were then washed twice in glucose-free KPB at 37° C. before incubation for exactly 10 min at 37° C. in glucose-free KPB containing 0.5 μCi/ml 2-deoxy-D-[1-^3H]glucose (Amersham Biosciences; Buckinghamshire, UK). Cells were then placed on ice and immediately washed three times with ice-cold KPB. Cells were inspected for monolayer detachment and lysed in 0.1 N NaOH with scraping. […] Three independent experiments of 18 h treatment duration were performed for each of the selected test compounds, with three replicates per condition per experiment. Vehicle-control and 50 μM 2,4-dinitrophenol conditions were included on every plate. Some compounds were also tested at 50 μM under the following conditions: a 15 h treatment with vehicle only followed by a 3 h treatment with the test compound; a 15 h treatment with the test compound followed by a 3 h repeat treatment.
Protocol for ^3H-deoxyglucose uptake assay in C2C12 or other skeletal muscle cells; C2C12 murine skeletal myoblasts (American Type Culture Collection; Manassas, Va.) may be cultured under standard conditions in 12-well plates. Cells may be proliferated to 80% confluence in high-glucose Dulbecco's modified Eagle's medium (DMEM) supplemented with 10% fetal bovine serum (FBS), 10% horse serum (HS), and antibiotics. Differentiation into multinucleated myotubes may be then promoted with DMEM supplemented with 2% HS and antibiotics. All uptake assays may be performed on 7-day differentiated cells, and treatment onset may be timed accordingly. Cells may be treated with reference substances (such as metformin (100 or 400 μM), phenformin (100 μM), or 2,4-dinitrophenol 10-100 μM), compounds described herein, or vehicle (DMSO) in complete differentiation medium. DMSO concentration may be fixed at 0.1% for all conditions. Cells may be routinely inspected for abnormal morphology by phase-contrast microscopy at the conclusion of the treatment period. […] Cells may be then washed twice in glucose-free KPB at 37° C. before incubation for exactly 10 min at 37° C. in glucose-free KPB containing 0.5 μCi/ml 2-deoxy-D-[1-3H]glucose (Amersham Biosciences; Buckinghamshire, UK). Cells may be then placed on ice and immediately washed three times with ice-cold KPB. Cells may be inspected for monolayer detachment and lysed in 0.1 N NaOH with scraping. […] Three or more independent experiments of 18 hours treatment duration may be performed for each test compound, with three or more replicates per condition per experiment. Vehicle-control and 2,4-dinitrophenol conditions may be included on every plate for the purpose of standardizing.

The test system of data set [2] is isolated rat liver mitochondria. As to the kind of experiment: Uncoupling activity: increase in basal (state 4) oxygen consumption by oxygraphy. Type of data set: biochemical. The following applies: for Uncoupling (%): increase in basal (state 4) oxygen consumption as % of average ADP-stimulated (state 3) rate in vehicle-treated mitochondria.
Data set [3] has the same test system. Put plainly: Residual functional capacity / inhibitory effect on ADP-stimulated (state 3) oxygen consumption. Type of data set: biochemical. The following applies: for Residual capacity (%): functional capacity (state 3 minus state 4 rate) as % of vehicle-treated mitochondria.
A further data set relates to H4IIE hepatocytes. As to the kind of experiment: Lactate dehydrogenase (LDH) release, cellular viability. Type of data set: cell-based, murine. The note with it: 25 μM, 16 h. As to the method:
2.4 Glucose-6-phosphatase activity in H4IIE hepatocytes: H4IIE murine hepatocytes (American Type Culture Collection) were cultured to confluence in 12-well plates in DMEM supplemented with 10% FBS and antibiotics. […] Effects of test compounds on cellular viability were assessed by measuring the release of lactate dehydrogenase (LDH) into the culture medium at the end of a 16 h treatment using a commercial kit (Cytotoxicity Detection Kit; Roche Diagnostics; Laval, QC) as per the manufacturer's instructions; LDH release was expressed as % of total (medium+lysate) LDH content for each well. […] Glucose-6-phosphatase (G6Pase) activity was assessed by measuring the rate of glucose formation in the presence of a non-limiting amount of glucose-6-phosphate (G6P), as done by others [39B, 40B]. Glucose production was measured with a commercial glucose assay kit (AutoKit Glucose; Wako Diagnostics; Richmond, Va.). […] Absorbance of the supernatant was measured at 505 nm at ambient temperature and glucose concentration was calculated from a standard curve performed in parallel. Control wells without exogenous G6P were included on each plate for each treatment condition and activity measured from these wells was subtracted from activity measured in the presence of exogenous G6P. G6Pase activity calculated in this way was then expressed normalized to protein content on a well-by-well basis. […]

On to `O=[N+]([O-])c1ccc(O)c([N+](=O)[O-])c1` [2,4-dinitrophenol], for which the “increase in basal glucose uptake” value in data set [1] (25 μM) came to 66%; in data set [1] (50 μM) it was 119%; in data set [1] (100 μM) it was 169%. Besides, the uncoupling activity entry in data set [2] (50 μM in 0.1% DMSO (FIG. 19)) is reported as “increased basal oxygen consumption above the level of ADP-stimulated consumption”. The measured uncoupling activity in data set [2] (100 μM) is recorded as 143%. In addition, the “slope of the linear portion of the concentration-to-activity relationship” value in data set [2] (dose-escalation, logarithmic scales) is reported as 0.89. Moreover, in data set [2] (dose-escalation, read-out: U50 (concentration at which 50% uncoupling is induced)), the EC50 is around 10 µM. In addition, the figures for the “Uncoupling (%)” value in data set [2] (test conc. 25 μM) and in data set [2] (test conc. 100 μM) were 127 ± 11% and 143 ± 5%, respectively. The “Inhibitory effect (%)” value in data set [3] (test conc. 25 μM) and in data set [3] (test conc. 100 μM) was 0% throughout. In addition, the “Residual capacity (%)” value in data set [3] (test conc. 25 μM) came out at 14 ± 6%; in data set [3] (test conc. 100 μM), 0 ± 0%. Besides, the “release of lactate dehydrogenase” value in the data set with H4IIE hepatocytes is listed as “comparable to that of vehicle-treated cells”.
